{"source": "patent US20020137929A1", "about": "“1 - (3-heterocyclylphenyl) isothiourea, -isourea, -guanidine and -amidine herbicidal agents” (Intellectual Property Department, BASF Aktiengesellschaft, priority 1998, published 2002)", "key": {"[1]": {"tested_on": "ABUTH (Velvetleaf)", "experiment": "Postemergence herbicidal evaluation", "assay_type": "in vivo, Abutilon theophrasti", "settings": "postemergence", "in_short": "(§1)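 Visual 0–9 rating versus control (stand, vigor, malformation, size, chlorosis, overall appearance), taken four to five weeks post-spray. Two-week-old seedlings received roughly 0.0156–0.500 kg/ha active in acetone/water (50/50) with 0.5% TWEEN 20 via nozzle at 40 psi.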"}, "[2]": {"tested_on": "CHEAL (Lambsquarters, Common)", "experiment": "Preemergence herbicidal evaluation", "assay_type": "in vivo, Chenopodium album", "settings": "preemergence, rated 4-5 weeks after treatment, 0-9 scale", "in_short": "(§2)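 Visual 0-9 rating vs control (stand, vigor, malformation, size, chlorosis, overall appearance), scored 4-5 wk after spraying. Seeded soil cups were treated preemergence with compound in aqueous acetone, ~0.0156-0.500 kg/ha equivalent.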"}, "[3]": {"tested_on": "ZEAMX (Corn, Field)", "experiment": "Preemergence herbicidal evaluation", "assay_type": "in vivo, Zea mays", "settings": "preemergence, rated 4-5 weeks after treatment, 0-9 scale", "in_short": "as §2"}, "[4]": {"tested_on": "SETVI (Foxtail, Green)", "experiment": "Postemergence herbicidal evaluation", "assay_type": "in vivo, Setaria viridis", "settings": "postemergence", "in_short": "as §1"}, "[5]": {"tested_on": "CYPIR (Rice Flatsedge)", "experiment": "Postemergence weed control under flooded paddy conditions", "assay_type": "in vivo, Cyperus iria", "settings": "postemergence weeds, rated 3 to 4 weeks after treatment", "in_short": "(§3)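 Herbicidal effect is judged by eye on a 0–9 scale versus control, 3–4 weeks after dosing. Dosing is into flood water kept 1.5–3 cm over the soil, at about 0.0313–0.500 kg/ha in aqueous/acetone 50/50 v/v, on 3–5 cm weeds and 1.5–2.5-leaf rice seedlings.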"}, "[6]": {"tested_on": "ORYSAT (Rice, Tebonnet)", "experiment": "Postemergence herbicidal evaluation", "assay_type": "in vivo, Oryza sativa, (L.) Tebonnet", "settings": "postemergence", "in_short": "as §1"}, "[7]": {"tested_on": "CHEAL (Lambsquarters, Common)", "experiment": "Postemergence herbicidal evaluation", "assay_type": "in vivo, Chenopodium album", "settings": "postemergence", "in_short": "as §1"}, "[8]": {"tested_on": "ECHCG (Barnyardgrass)", "experiment": "Preemergence herbicidal evaluation", "assay_type": "in vivo, Echinochloa crus-galli", "settings": "preemergence, rated 4-5 weeks after treatment, 0-9 scale", "in_short": "as §2"}, "[9]": {"tested_on": "CYPSE (Flatsedge)", "experiment": "Postemergence weed control under flooded paddy conditions", "assay_type": "in vivo, Cyperus serotinus", "settings": "postemergence weeds, rated 3 to 4 weeks after treatment", "in_short": "as §3"}, "[10]": {"tested_on": "IPOHE (Morningglory, Ivyleaf)", "experiment": "Preemergence herbicidal evaluation", "assay_type": "in vivo, Ipomoea hederacea", "settings": "preemergence, rated 4-5 weeks after treatment, 0-9 scale", "in_short": "as §2"}, "[11]": {"tested_on": "GLXMAW (Soybean, Williams)", "experiment": "Preemergence herbicidal evaluation", "assay_type": "in vivo, Glycine max, (L.) Merr. cv Williams", "settings": "preemergence, rated 4-5 weeks after treatment, 0-9 scale", "in_short": "as §2"}, "[12]": {"tested_on": "IPOHE (Morningglory, Ivyleaf)", "experiment": "Postemergence herbicidal evaluation", "assay_type": "in vivo, Ipomoea hederacea", "settings": "postemergence", "in_short": "as §1"}, "[13]": {"tested_on": "ECHCG (Barnyardgrass)", "experiment": "Postemergence herbicidal evaluation", "assay_type": "in vivo, Echinochloa crus-galli", "settings": "postemergence", "in_short": "as §1"}, "[14]": {"tested_on": "ABUTH (Velvetleaf)", "experiment": "Preemergence herbicidal evaluation", "assay_type": "in vivo, Abutilon theophrasti", "settings": "preemergence, rated 4-5 weeks after treatment, 0-9 scale", "in_short": "as §2"}, "[15]": {"tested_on": "ZEAMX (Corn, Field)", "experiment": "Postemergence herbicidal evaluation", "assay_type": "in vivo, Zea mays", "settings": "postemergence", "in_short": "as §1"}, "[16]": {"tested_on": "TRZAWR (Wheat, Winter, cv Riband)", "experiment": "Preemergence herbicidal evaluation", "assay_type": "in vivo, Triticum aestivum", "settings": "preemergence, rated 4-5 weeks after treatment, 0-9 scale", "in_short": "as §2"}, "[17]": {"tested_on": "CASOB (Sicklepod)", "experiment": "Preemergence herbicidal evaluation", "assay_type": "in vivo, Cassia obtusifolia", "settings": "preemergence, rated 4-5 weeks after treatment, 0-9 scale", "in_short": "as §2"}}, "data": [{"smiles": "C=CCN1C(=O)C(CC(=O)NS(C)(=O)=O)SC1=Nc1cc(-n2c(=O)cc(C(F)(F)F)n(C)c2=O)c(F)cc1Cl", "note": "(centres unmarked) [Compound 96, 3-Allyl-2-{{2-chloro-5-[3,6-dihydro-3-methyl-2,6-dioxo-4-(trifluoromethyl)-1(2H)-pryimidinyl]-4-fluorophenyl}imino}-N-(methylsulfonyl)-4-oxo-5-thiazolidineacetamide]", "values": [{"measurement": "ABUTH herbicidal rating", "setting": "[1]; rate 0.0156 kg/ha", "result": 1.0}, {"measurement": "ABUTH herbicidal rating", "setting": "[1]; rate 0.0313 kg/ha", "result": 7.0}, {"measurement": "ABUTH herbicidal rating", "setting": "[1]; rate 0.0625 kg/ha", "result": 9.0}, {"measurement": "ABUTH herbicidal rating", "setting": "[1]; rate 0.1250 kg/ha", "result": 9.0}, {"measurement": "CHEAL rating", "setting": "[2]; 0.0313 kg/ha", "result": 2.0}, {"measurement": "CHEAL rating", "setting": "[2]; 0.0625 kg/ha", "result": 2.0}, {"measurement": "CHEAL rating", "setting": "[2]; 0.1250 kg/ha", "result": 3.0}, {"measurement": "CHEAL rating", "setting": "[2]; 0.2500 kg/ha", "result": 9.0}, {"measurement": "CHEAL rating", "setting": "[2]; 0.5000 kg/ha", "result": 9.0}, {"measurement": "ZEAMX rating", "setting": "[3]; 0.0313 kg/ha", "result": 0.0}, {"measurement": "ZEAMX rating", "setting": "[3]; 0.0625 kg/ha", "result": 1.0}, {"measurement": "ZEAMX rating", "setting": "[3]; 0.1250 kg/ha", "result": 0.0}, {"measurement": "ZEAMX rating", "setting": "[3]; 0.2500 kg/ha", "result": 2.0}, {"measurement": "ZEAMX rating", "setting": "[3]; 0.5000 kg/ha", "result": 4.0}, {"measurement": "SETVI herbicidal rating", "setting": "[4]; rate 0.0156 kg/ha", "result": 0.0}, {"measurement": "SETVI herbicidal rating", "setting": "[4]; rate 0.0313 kg/ha", "result": 1.0}, {"measurement": "SETVI herbicidal rating", "setting": "[4]; rate 0.0625 kg/ha", "result": 7.0}, {"measurement": "SETVI herbicidal rating", "setting": "[4]; rate 0.1250 kg/ha", "result": 4.0}, {"measurement": "Herbicidal rating CYPIR", "setting": "[5]; Rate 0.0313 kg/ha", "result": 0.0}, {"measurement": "Herbicidal rating CYPIR", "setting": "[5]; Rate 0.0625 kg/ha", "result": 5.0}, {"measurement": "Herbicidal rating CYPIR", "setting": "[5]; Rate 0.1250 kg/ha", "result": 6.0}, {"measurement": "Herbicidal rating CYPIR", "setting": "[5]; Rate 0.2500 kg/ha", "result": 6.0}, {"measurement": "ORYSAT herbicidal rating", "setting": "[6]; rate 0.0156 kg/ha", "result": 2.0}, {"measurement": "ORYSAT herbicidal rating", "setting": "[6]; rate 0.0313 kg/ha", "result": 2.0}, {"measurement": "ORYSAT herbicidal rating", "setting": "[6]; rate 0.0625 kg/ha", "result": 1.5}, {"measurement": "ORYSAT herbicidal rating", "setting": "[6]; rate 0.1250 kg/ha", "result": 2.0}, {"measurement": "CHEAL herbicidal rating", "setting": "[7]; rate 0.0156 kg/ha", "result": 2.0}, {"measurement": "CHEAL herbicidal rating", "setting": "[7]; rate 0.0313 kg/ha", "result": 2.0}, {"measurement": "ECHCG rating", "setting": "[8]; 0.0313 kg/ha", "result": 0.0}, {"measurement": "ECHCG rating", "setting": "[8]; 0.0625 kg/ha", "result": 0.0}, {"measurement": "ECHCG rating", "setting": "[8]; 0.1250 kg/ha", "result": 0.0}, {"measurement": "ECHCG rating", "setting": "[8]; 0.2500 kg/ha", "result": 1.0}, {"measurement": "ECHCG rating", "setting": "[8]; 0.5000 kg/ha", "result": 1.0}, {"measurement": "Herbicidal rating CYPSE", "setting": "[9]; Rate 0.0313 kg/ha", "result": 0.0}, {"measurement": "Herbicidal rating CYPSE", "setting": "[9]; Rate 0.0625 kg/ha", "result": 0.0}, {"measurement": "Herbicidal rating CYPSE", "setting": "[9]; Rate 0.1250 kg/ha", "result": 0.0}, {"measurement": "Herbicidal rating CYPSE", "setting": "[9]; Rate 0.2500 kg/ha", "result": 0.0}, {"measurement": "IPOHE rating", "setting": "[10]; 0.0313 kg/ha", "result": 0.0}, {"measurement": "IPOHE rating", "setting": "[10]; 0.0625 kg/ha", "result": 0.0}, {"measurement": "IPOHE rating", "setting": "[10]; 0.1250 kg/ha", "result": 1.0}, {"measurement": "IPOHE rating", "setting": "[10]; 0.2500 kg/ha", "result": 9.0}, {"measurement": "IPOHE rating", "setting": "[10]; 0.5000 kg/ha", "result": 9.0}, {"measurement": "GLXMAW rating", "setting": "[11]; 0.0313 kg/ha", "result": 0.0}, {"measurement": "GLXMAW rating", "setting": "[11]; 0.0625 kg/ha", "result": 0.0}, {"measurement": "GLXMAW rating", "setting": "[11]; 0.1250 kg/ha", "result": 0.0}, {"measurement": "GLXMAW rating", "setting": "[11]; 0.2500 kg/ha", "result": 3.0}, {"measurement": "GLXMAW rating", "setting": "[11]; 0.5000 kg/ha", "result": 4.0}, {"measurement": "IPOHE herbicidal rating", "setting": "[12]; rate 0.0156 kg/ha", "result": 6.0}, {"measurement": "IPOHE herbicidal rating", "setting": "[12]; rate 0.0313 kg/ha", "result": 9.0}, {"measurement": "IPOHE herbicidal rating", "setting": "[12]; rate 0.0625 kg/ha", "result": 9.0}, {"measurement": "IPOHE herbicidal rating", "setting": "[12]; rate 0.1250 kg/ha", "result": 9.0}, {"measurement": "ECHCG herbicidal rating", "setting": "[13]; rate 0.0156 kg/ha", "result": 0.0}, {"measurement": "ECHCG herbicidal rating", "setting": "[13]; rate 0.0313 kg/ha", "result": 0.0}, {"measurement": "ECHCG herbicidal rating", "setting": "[13]; rate 0.0625 kg/ha", "result": 2.0}, {"measurement": "ECHCG herbicidal rating", "setting": "[13]; rate 0.1250 kg/ha", "result": 2.0}, {"measurement": "ABUTH rating", "setting": "[14]; 0.0313 kg/ha", "result": 1.0}, {"measurement": "ABUTH rating", "setting": "[14]; 0.0625 kg/ha", "result": 9.0}, {"measurement": "ABUTH rating", "setting": "[14]; 0.1250 kg/ha", "result": 9.0}, {"measurement": "ABUTH rating", "setting": "[14]; 0.2500 kg/ha", "result": 9.0}, {"measurement": "ABUTH rating", "setting": "[14]; 0.5000 kg/ha", "result": 9.0}, {"measurement": "ZEAMX herbicidal rating", "setting": "[15]; rate 0.0156 kg/ha", "result": 4.5}, {"measurement": "ZEAMX herbicidal rating", "setting": "[15]; rate 0.0313 kg/ha", "result": 4.5}, {"measurement": "ZEAMX herbicidal rating", "setting": "[15]; rate 0.0625 kg/ha", "result": 4.5}, {"measurement": "ZEAMX herbicidal rating", "setting": "[15]; rate 0.1250 kg/ha", "result": 5.0}, {"measurement": "TRZAWR rating", "setting": "[16]; 0.0313 kg/ha", "result": 0.0}, {"measurement": "TRZAWR rating", "setting": "[16]; 0.0625 kg/ha", "result": 0.0}, {"measurement": "TRZAWR rating", "setting": "[16]; 0.1250 kg/ha", "result": 0.0}, {"measurement": "TRZAWR rating", "setting": "[16]; 0.2500 kg/ha", "result": 1.0}, {"measurement": "TRZAWR rating", "setting": "[16]; 0.5000 kg/ha", "result": 1.0}, {"measurement": "CASOB rating", "setting": "[17]; 0.0313 kg/ha", "result": 0.0}, {"measurement": "CASOB rating", "setting": "[17]; 0.0625 kg/ha", "result": 0.0}, {"measurement": "CASOB rating", "setting": "[17]; 0.1250 kg/ha", "result": 0.0}, {"measurement": "CASOB rating", "setting": "[17]; 0.2500 kg/ha", "result": 4.0}, {"measurement": "CASOB rating", "setting": "[17]; 0.5000 kg/ha", "result": 9.0}]}]}
